Measured values from publication PMC7465040, “Cytotoxic and Anti-Plasmodial Activities of Stephania dielsiana Y.C. Wu Extracts and the Isolated Compounds” (Molecules, 2020).
Like-named read-outs stand apart in the source and are kept apart here.

Columns and labels:
[1] = test system: phosphorylation of histone H3 on Ser-10 in HeLa cells; assay: Western blot, histone H3 Ser-10 phosphorylation; format: cell-based, human; conditions: 12 h
Experimental: (§1) Western Blot analysis: Western blotting was carried out as described previously. The primary antibodies used were from Cell Signaling (Histone H3; p-Histone H3^S10 and Phospho-Aurora A (Thr288)/Aurora B (Thr232)/Aurora C (Thr198)) and used at recommended dilution. For cell synchronization at prometaphase, HeLa cells were treated with 50 ng/mL nocodazole (NZ) (Santa Cruz Biotechnology) for 12 h. All experiments were carried out at least twice.

MCF7 = assay: SRB cell proliferation assay, MCF7; format: cell-based, human
Experimental: (§2) In vitro anticancer study: The in vitro anti-proliferative tests were carried out as described previously, using aliquots of the cell lines used therein. Briefly, HeLa, MDA-MB-231 and MDA-MB-468, MCF7, and 184B5 and MCF 10A cell lines were purchased from ATCC. The identity of the cell lines presented in this study were verified by short tandem repeat profiling by Genetica DNA Laboratories (www.celllineauthentication.com) (April 8, 2015). MCF10A was grown in DMEM F12 medium supplemented with 0.02 μg/mL epidermal growth factor, 10% FBS, 10 μg/mL insulin and […] hydrocortisone. MDA-MB-468 were grown in DMEM supplemented with 10% FBS and antibiotics cocktail (100 μg/mL streptomycin, 100 units/mL penicillin and 250 ng/mL amphotericin B). SRB cell proliferation assays were carried out as previously described, with some minor modifications. The concentration range for all tested cell lines were from 100–0.39 μg/mL for extracts and 100–0.39 μM for pure compounds. […] All experiments were carried out at least twice.

[2] = test system: Aurora A, B, and C phosphorylation in HeLa cells arrested in mitosis; assay: Western blot, autophosphorylation of Aurora kinases; format: cell-based, human; conditions: 20 μM, 12 h
Experimental: as §1

MDA-MB-231 cells = assay: Annexin V staining / IncuCyte apoptosis and proliferation assay; format: cell-based, human
Experimental: Annexin V staining: Cell death mechanism and cell proliferation assays were analysed using the IncuCyte Apoptosis Assay method using the Annexin V Green reagent (Essen Biosciences, Ann Arbor, MI, USA) and the IncuCyte S3 and IncuCyte ZOOM software (Version 2018B, Bohemia, NY, USA) according to supplier’s protocol. Statistical analysis was carried out in Graph Pad Prism 5. All experiments were carried out at least twice.

184B5 = assay: SRB cell proliferation assay, 184B5 non-cancer cells; format: cell-based, human; conditions: for IC50: Homo sapiens, 184B5, read-out: IC50 (μM ± SD) 184B5
Experimental: as §2

[3] = test system: chloroquine-resistant W2 P. falciparum strain; assay: In vitro anti-plasmodial assay (HRP2 ELISA), W2; format: cell-based, Plasmodium falciparum; conditions: for IC50: 72 h, HRP2 ELISA, mean of five experiments, read-out: IC50 (μM ± SD) W2
Experimental: Parasites were grown in A-positive human blood (Etablissement Français du Sang, Marseille, France) under controlled atmospheric conditions that consisted of 10% O2, 5% CO2, and 85% N2 at 37 °C with a humidity of 95%.
In vitro anti-plasmodial assay: The two P. falciparum strains 3D7 and W2 were synchronized twice with sorbitol before use. The clonality of these strains was verified both in our laboratory and in an independent laboratory from the Worldwide Anti-malarial Resistance Network (WWARN) by PCR genotyping of the polymorphic genetic markers msp1 and msp2 and microsatellite loci. The compounds were re-suspended in methanol or DMSO 5% (v/v) and then diluted in methanol to obtain final concentrations ranging from 0.008 to 500 μg/mL (final concentration of 0.5% of methanol or DMSO). […] The plates were incubated for 72 h at 37 °C in controlled atmospheric conditions 5% CO2, 10% O2, and […]. After thawing the plates, haemolysed cultures were homogenized by vortexing the plates. Both the success of the drug susceptibility assay and the appropriate volume of haemolysed culture to use for each assay were determined for each clinical isolate during a preliminary HRP2 ELISA. Both the pre-test and subsequent ELISA assays were performed using a commercial kit (Malaria Ag Celisa, ref KM2159, Cellabs PTY LTD, Brookvale, Australia) according to the manufacturer’s recommendation. The optical density (OD) of each sample was measured with a spectrophotometer (Safire 2, Tecan, Lyon, France). […] The anti-plasmodial in vitro assay was performed five times for each product. The IC50 values represented the mean value calculated from five experiments. According to Hout, a selectivity index (SI) was based on the ratio between anti-parasitic and cytotoxic activities. In the case of our study, a SI was calculated between non-tumorigenic cell line 184B5 and parasites 3D7 or W2 and/or MCF10A and these two parasites.

COc1cccc2c1C(=O)c1nccc3cc4c(c-2c13)OCO4 [Oxostephanine 1, oxostephanine]
Phosphorylation of histone H3 on Ser-10 [1]: dramatically downregulated | IC50 (MCF7; Homo sapiens, MCF7, Table 2A, SRB, 72 h, read-out: IC50 (μM ± SD) MCF7): 4.35 ± 1.2 µM | Selectivity index (SI) 184B5 versus MCF7 (MCF7; Table 2B, non-cancer 184B5 vs cancer MCF7): 0.38 | Selectivity index (SI) MCF10A versus MCF7 (MCF7; Table 2B, non-cancer MCF10A vs cancer MCF7): 0.57 | Autophosphorylation of Aurora kinases A, B and C [2]: inhibits the auto-phosphorylation of all three Aurora kinases | Time to inhibition of proliferation (MDA-MB-231 cells; MDA-MB-231): ≤ 12 h | Apoptotic effect compared to camptothecin (MDA-MB-231 cells; MDA-MB-231, 10 μM, 1-way ANOVA p < 0.05): much stronger apoptotic effect | Time to start of apoptosis (Annexin V) (MDA-MB-231 cells; MDA-MB-231, post-treatment): ≤ 16 h | IC50 (184B5; Table 2A, SRB, 72 h): 1.66 ± 0.56 µM | IC50 (184B5; Table 3, non-cancer cell line): 1.66 ± 0.56 µM | Increase in effectiveness compared with stephanine (3), 184B5 (184B5; ratio of IC50): ~4 fold | IC50 [3]: 216 ± 31.5 µM | IC50 ([3]; Plasmodium falciparum, W2, 72 h): 216 to 226 µM | SI W2 184B5 ([3]; Table 3, selectivity index between 184B5 and parasites W2): 0.007
